A short description of data set [1]: 2,2-diphenyl-1-picrylhydrazyl (DPPH) assay, free-radical scavenging. It counts as biochemical. The conditions noted are these: for free-radical scavenger / antioxidant properties compared with tocopherol (vitamin E): DPPH assay, same experimental set-up; for Absorbance in %, based on absorbance without THBC: 515 nm, 25° C., 1 cm, constant absorbance. From the text:
The performance of the DPPH assay is described in Brand-Williams, W., Cuvelier, M. E. & Berset, C. […] Gamez, E. J. et al. “Antioxidant flavonoid glycosides from Daphniphyllum calycinum”; J. Nat. Prod.
2,2-Diphenyl-1-picrylhydrazyl is a free radical which is stable in solution. The unpaired electron results in a strong absorption band at 515 nm, and the solution has a dark violet colour. In the presence of a free-radical scavenger, the electron is paired, the absorption disappears, and the decoloration proceeds stoichiometrically taking into account the electrons taken up. The absorbance is measured in a photometer. The anti-free-radical property of the substance to be tested is determined by measuring the concentration at which 50% of the 2,2-diphenyl-1-picrylhydrazyl employed has reacted with the free-radical scavenger. This concentration is expressed as EC50, a value which can be considered to be a property of the substance under the given measurement conditions. The substance investigated is compared with a standard (for example tocopherol).
In addition, the slope of the straight lines in the linear region is determined and the EC50 calculated.
A 70 μM stock solution of 2,2-diphenyl-1-picrylhydrazyl (DPPH) in ethanol was prepared. Such amounts of 4,6,3′,4′-tetrahydroxybenzylcoumaranone (THBC) were added to aliquots of this solution so as to give the THBC/DPPH ratios indicated in Table 1. The absorbance was in each case measured at 515 nm, 25° C. and 1 cm, with Table 1 in each case indicating the value measured at constant absorbance. The values are plotted graphically against one another in FIG. 1, with the molar ratio being plotted on the x axis and the measured absorbance as a relative proportion of the absorbance measured for the stock solution (100%) being plotted on the y axis.

The nature of data set [2]: Stabilisation of dibenzoylmethane UV filters against decomposition by UV light. Type of data set: physicochemical. Conditions: no method or figures given. The text has this: The invention furthermore relates to the stabilisation of UV filters. A known and effective class of light-protection filter substances is formed by dibenzoylmethane derivatives. However, it is disadvantageous that these substances are very easily decomposed by UV light, and their protective properties are thus lost. An example of a light-protection filter from this class of compounds which is available on the market is 4-(tert-butyl)-4′-methoxydibenzoylmethane, which has the following structure: [drawing 18]

The values that follow come from US6903134B2, “Formulation comprising benzofuranone derivatives for protection against oxidative stress” (Merck Patent GmbH, priority 2000, dated 2005).

The structures appear in SMILES notation.

Take `O=C1c2c(O)cc(O)cc2OC1Cc1ccc(O)c(O)c1` (centres unmarked) [THBC, 4,6,3′,4′-tetrahydroxybenzylcoumaranone]: the “free-radical scavenger / antioxidant properties compared with tocopherol (vitamin E)” value in data set [1] is on record as “better free-radical scavenger properties than tocopherol”; in data set [1] (listed as 4,6,3′,4′-Tetrahydroxycoumaranone), “more potent antioxidant than tocopherol”. Further, the “Absorbance in %, based on absorbance without THBC” value in data set [1] (THBC/DPPH 0.01) came to 97.66%; in data set [1] (THBC/DPPH 0.02) it was 94.04%; in data set [1] (THBC/DPPH 0.05) it was 87.02%; in data set [1] (THBC/DPPH 0.07) it was 79.15%; in data set [1] (THBC/DPPH 0.10), 72.13%; in data set [1] (THBC/DPPH 0.12), 62.72%. Also, the “Absorbance in %, based on absorbance without THBC” value was 44.18% in data set [1] (THBC/DPPH 0.18); 26.08% in data set [1] (THBC/DPPH 0.24); 16.16% in data set [1] (THBC/DPPH 0.30); 15.73% in data set [1] (THBC/DPPH 0.37); 15.27% in data set [1] (THBC/DPPH 0.43); 15.27% in data set [1] (THBC/DPPH 0.49). Also, the “Absorbance in %, based on absorbance without THBC” value in data set [1] (THBC/DPPH 0.55) is reported as 15.27%; in data set [1] (THBC/DPPH 0.61), 15.05%; in data set [1] (THBC/DPPH 0.73) it was 14.19%; in data set [1] (THBC/DPPH 0.97) it was 14.56%; in data set [1] (THBC/DPPH 1.21) it was 14.56%. In addition, in data set [2], the “stabilisation action for dibenzoylmethanes” value is “particularly high stabilisation action”.
